The text below walks through data of patent US20130102538A1, “METHOD OF TREATING ALZHEIMER'S DISEASE USING PHARMACOLOGICAL CHAPERONES TO INCREASE PRESENILIN FUNCTION AND GAMMA-SECRETASE ACTIVITY” (AMICUS THERAPEUTICS, INC., priority 2010, published 2013).

“Also recorded” adds a separate entry of the source. Non-standard residues stand in square brackets, D forms with d. Residues, ends and D or L forms follow the SMILES beside them. ξ: configuration not given here. *: point of attachment. Cbz = O=C(OCc1ccccc1)*; Boc = CC(C)(C)OC(=O)*; ξNle = CCCCC(N)C(=O)O

Test [1] has as its target T1, PS1 precursor (Homo sapiens, UniProt P49768).
T1 construct: The unprocessed or precursor form of PS1 is evidenced by a band at 45 kDa; endogenous in cells; host or cells: SH-SY5Y neuroblastoma cells
The experiment in a line: Screening of γ-secretase inhibitors for PS1 precursor (holo) enhancement, western blot. Format: cell-based. Set-up: key to PS1 Precursor Enhancement: −: no effect; +: some effect; ++: moderate effect; +++: strong effect. As to conditions: ~50 uM inhibitor, 24 hrs; for PS1 Precursor Enhancement: SH-SY5Y neuroblastoma cells; for PS1 precursor (45 kDa band) level / stabilization: SY5Y neuroblastomas. On the procedure:
Eighteen different γ-secretase inhibitors (purchased from Calbiochem) were tested for their ability to stabilize the PS1 precursor. SH-SY5Y neuroblastoma cells (1e6) incubated in 6-well plates were dosed with ˜50 uM γ-secretase inhibitor (10% FBS, DMEM) for 24 hrs. Cells were lysed in 2% CHAPS (TBS+protease inhibitors), cell debris pelleted at 18,000 g. Total protein in cell lysates were determined by BCA and 25 ug of protein/lane loaded onto 4-12% BisTris NuPage gels (Invitrogen) that were electrophoresed at 150V for 1 hr. Gels were transferred to PVDF (25V, 1 hr) and probed with anti-N-term PS1 (1:1000, Abcam cat. #ab10281). Western blots were developed using chemiluminescence and imaged using an Alpha Innotech FluorChem Q imaging system. Γ-secretase inhibitors tested: PME, XX, XVII, X, IX, IV, II, I-40, VII, V, III, II-40, I, XIII, XVI, XIX, XXI, CW.
The mature form of PS1 (where PS1 is processed to form a heterodimer) is evidenced by a prominent band at 27 kDa (developed using an antibody specific for the N-terminus of PS1) and is present in all samples. […] The increase in PS1 precursor protein level is interpreted as stabilization of the PS1 precursor and the stabilization appears to be mechanistically distinct from the inhibition of γ-secretase activity since there is no correlation between γ-secretase inhibitory potency (IC50 for Abeta production) and levels of stabilized PS1 precursor (see Table 1).
A general note: In western blotting, separated proteins are transferred to a membrane and probed.

In the next test the target is γ-secretase (Homo sapiens, UniProt P49768). As to conditions: known IC50s of the inhibitors; read-out: IC50 (Abeta production); cited from earlier work.
The next test addresses T2, γ-secretase complex (Homo sapiens, UniProt P49768).
T2 construct: The mature form of presenlin is a heterodimer consisting of a ˜30 kDa NH2-terminal fragment (NTF) and a ˜20 kDa C-terminal fragment; host or cells: wild-type fibroblasts CRL2076
The experiment in a line: Native gel of intact γ-secretase complex from treated fibroblasts. Type of test: cell-based. As to conditions: wildtype fibroblasts CRL2076, 0-100 uM for 24 hrs, 6 hr wash out. The method, then: Wildtype fibroblasts (CRL2076) in a 6-well plate were treated with different doses of γ-secretase inhibitor IV (0, 3.1, 6.25, 12.5, 25 and 100 uM) for 24 hrs, followed by a 6 hr wash out period. Fibroblasts were harvested by gentle scraping in TBS, collected by centrifugation (5000 g, 5 min) and lysed in 1% digitonin (50 mM NaCl, 50 mM Hepes, pH 7.3) overnight at 4° C. Nonsolubilized cell debris was removed by centrifugation (15,000 g, 10 min.). Total protein was determined by BCA and equivalent proteins loads of 40 ug/lane were separated on a 4-16% native BisTris polyacrylamide gel using Blue-Native cathode and anode buffer system (Invitrogen). The native gel was transferred to PVDF (25V, 1 hr in NuPage Transfer buffer), blocked with Blotto (Pierce) and probed with anti-N-term PS1 (1:1000, Abcam cat. #ab10281) followed by development using an anti-rabbit alkaline phosphatase conjugate, chemiluminescence detection and imaged using an Alpha Innotech FluorChem Q imaging system.

Another test concerns the target T3, mature PS1 (Homo sapiens, UniProt P49768).
T3 construct: The mature form of PS1 (where PS1 is processed to form a heterodimer) is evidenced by a prominent band at 27 kDa; The mature form of presenlin is a heterodimer consisting of a ˜30 kDa NH2-terminal fragment (NTF) and a ˜20 kDa C-terminal fragment; endogenous in cells; host or cells: SH-SY5Y neuroblastoma cells
The experiment in a line: Mature PS1 dose response to four day treatment, western blot. As to conditions: SY5Y neuroblastomas, four days of treatment, different concentrations. Format: cell-based. On the procedure: SY5Y neuroblastomas grown in 6-well plates were dosed with different concentrations of γ-secretase inhibitors IX, XXI, and XX for four days, after which the cells were harvested by centrifugation (5000 g, 5 min.), lysed in RIPA buffer (TBS, 1% TX100, 0.5% taurodeoxycholate, 0.1% SDS plus protease inhibitors) and cleared of unsolubilized cell debris by centrifugation (15,000 g, 10 min., 4 C). Total protein was determined by BCA and equivalent protein loads of 50 ug/lane were separated on a 4-12% BisTris NuPage polyacrylamide gel (Invitrogen) then transferred to PVDF (25V, 1 hr in NuPage Transfer buffer). Western blots were probed with anti-N-term PS1 (1:1000, Abcam cat. #ab10281) followed by development using an anti-rabbit alkaline phosphatase conjugate, chemiluminescence detection and imaged using an Alpha Innotech FluorChem Q imaging system. After PS1 bands were quantified using the FluorChem Q band analysis software, blots were stripped and re-probed for actin (rabbit anti-actin, Pierce Chemicals).

Test [2] relates to PS1 precursor. The test is described as follows: Time course of PS1 precursor enhancement, western blot. Format: cell-based, human. As to conditions: 10 uM, lymphoblast cell line AG07622. The method, then:
Lymphoblast cell line AG07622 was dosed in 6-well plates with 10 uM of γ-secretase inhibitor X (in 10% FBS, DMEM) for 0 hrs, 2 hrs, 4 hrs, 6 hrs and 24 hrs. Control samples containing 1% DMSO were ran in parallel to the drug treated lymphoblasts. After the specified dosing time, cells were harvested by centrifugation (5000 g, 5 min.), lysed in 2% CHAPS/TBS (with protease inhibitors) and cleared of unsolubilized cell debris by centrifugation (15,000 g, 10 min., 4 C). Total protein was determined by BCA and equivalent proteins loads of 40 ug/lane were separated on a 4-12% BisTris NuPage polyacrylamide gel (Invitrogen) then transferred to PVDF (25V, 1 hr in NuPage Transfer buffer). Western blots were probed with anti-N-term. PS1 (1:1000, Abcam cat. #ab 10281) followed by development using an anti-rabbit alkaline phosphatase conjugate, chemiluminescence detection and imaged using an Alpha Innotech FluorChem Q imaging system.

Consider `O=C(O)c1cc(Oc2ccc([N+](=O)[O-])cc2)cc(Oc2ccc([N+](=O)[O-])cc2)c1` [CW], for which, on PS1 precursor [1], the “PS1 Precursor Enhancement” value is given as “−”.

Regarding `CCCCC(C=O)NC(=O)[C@H](CC(C)C)NC(=O)[C@@H](CC(C)C)NC(=O)OCc1ccccc1` (stereo partly drawn) [I, benzyl ((2R)-4-methyl-1-(((2S)-4-methyl-1-oxo-1-((1-oxohexan-2-yl)amino)pentan-2-yl)amino)-1-oxopentan-2-yl)carbamate] (Cbz-[dL]-Leu-[ξNle]-aldehyde), at PS1 precursor [1], the “PS1 Precursor Enhancement” value was “+” and the “PS1 precursor (45 kDa band) level / stabilization” value is “significantly increased”.

The IC50 is the midpoint of a concentration-inhibition curve. On to `CCC(C)C(NC(=O)C=Cc1cc(OC)cc(OC)c1)C(=O)NC(C=O)CC(C)C` (stereo not drawn) [I-40, trans-3,5-DMC-Ile-Leu-CHO], for which the half-maximal inhibitory concentration (IC50) on γ-secretase is 15000 nM. Moreover, on PS1 precursor [1], the “PS1 Precursor Enhancement” value is on record as “−” and the “PS1 precursor (45 kDa band) level / stabilization” value is listed as “significantly increased”.

As for `CC(C)C(C=O)NC(=O)C(NC(=O)CNC(=O)OC(C)(C)C)C(C)C` (stereo not drawn) [II-40] (Boc-Gly-Val-Val-aldehyde; configuration not given here), the “PS1 Precursor Enhancement” value on PS1 precursor [1] was “−”.

On to `CC(C)C[C@@H](C=O)NC(=O)[C@@H](CC(C)C)NC(=O)OCc1ccccc1` [III], for which the half-maximal inhibitory concentration (IC50) on γ-secretase was 35000 nM. On PS1 precursor [1], the “PS1 Precursor Enhancement” value is recorded as “−”.

Consider `CC(C)[C@H](NC(=O)c1ccc2ccccc2c1)C(=O)N[C@H](C=O)Cc1ccccc1` [IV, N-((S)-3-methyl-1-oxo-1-(((S)-1-oxo-3-phenylpropan-2-yl)amino)butan-2-yl)-2-naphthamide], for which the half-maximal inhibitory concentration (IC50) on γ-secretase was 2600 nM. In addition, the “band intensity / level of the γ-secretase complex” value on γ-secretase complex is “increased levels of the γ-secretase complex; also recorded: increases as a function of increasing concentration”. In addition, on PS1 precursor [1], the “PS1 Precursor Enhancement” value is reported as “++” and the “PS1 precursor (45 kDa band) level / stabilization” value is “significantly increased”.

As to `C[C@H](NC(=O)Cc1cc(F)cc(F)c1)C(=O)N[C@H](C(=O)OC(C)(C)C)c1ccccc1` [IX, (S)-tert-butyl 2-((S)-2-(2-(3,5-difluorophenyl)acetamido)propanamido)-2-phenylacetate], on mature PS1, the “mature PS1 protein levels” value is given as “dose dependent increase”. For the same molecule, on PS1 precursor [1], the “PS1 Precursor Enhancement” value was “−” and the “PS1 precursor (45 kDa band) level / stabilization” value is reported as “does not stabilize the PS1 precursor”.

As to `CC(C)CC(C=O)NC(=O)C(CC(C)C)NC(=O)OC1CC(C)CCC1C(C)C` (stereo not drawn) [VII], the IC50 on γ-secretase is 2300 nM. Also, the “PS1 Precursor Enhancement” value on PS1 precursor [1] is reported as “−”.

With `CC(C)CC(NC(=O)OCc1ccccc1)C(=O)NC(C=O)Cc1ccccc1` (stereo not drawn) [V] (Cbz-Leu-Phe-aldehyde; configuration not given here), the IC50 on γ-secretase is 5000 nM. Further, the “PS1 Precursor Enhancement” value on PS1 precursor [1] is “−”.

Take `CC(C)C[C@H](NC(=O)[C@H](Cc1ccccc1)C[C@@H](O)[C@H](Cc1ccccc1)NC(=O)OC(C)(C)C)C(=O)N[C@@H](Cc1ccccc1)C(N)=O` [X, tert-butyl ((2S,3R,5R)-6-(((S)-1-(((S)-1-amino-1-oxo-3-phenylpropan-2-yl)amino)-4-methyl-1-oxopentan-2-yl)amino)-5-benzyl-3-hydroxy-6-oxo-1-phenylhexan-2-yl)carbamate]: the half-inhibitory concentration (IC50) at γ-secretase is 17 nM. Moreover, in the test with PS1 precursor [2], the “time at which increase in PS1 precursor is first evident” value is 2 h and the “time at which maximum PS1 precursor level is reached” value worked out at 24 h. Further, on PS1 precursor [1], the “PS1 Precursor Enhancement” value is recorded as “+++” and the “PS1 precursor (45 kDa band) level / stabilization” value was “significantly increased”.

Take `CCC(C)C(NC(=O)[C@H](Cc1ccc(O)cc1)NC(=O)OCc1ccccc1)C(=O)N[C@H](C=O)CC(C)C` (stereo partly drawn) [XIII, benzyl ((2S)-3-(4-hydroxyphenyl)-1-((3-methyl-1-(((S)-4-methyl-1-oxopentan-2-yl)amino)-1-oxopentan-2-yl)amino)-1-oxopropan-2-yl)carbamate]: the concentration for half-maximal inhibition (IC50) on γ-secretase was 8 nM. Further, on PS1 precursor [1], the “PS1 Precursor Enhancement” value was “+” and the “PS1 precursor (45 kDa band) level / stabilization” value was “significantly increased”.

Consider `COC(=O)[C@@H](NC(=O)[C@H](CC(C)C)NC(=O)N(Cc1ccccc1)C[C@@H](O)[C@H](Cc1ccccc1)NC(=O)OC(C)(C)C)C(C)C` [XVII, (6S,7R,12S,15S)-methyl 6,9-dibenzyl-7-hydroxy-12-isobutyl-15-isopropyl-2,2-dimethyl-4,10,13-trioxo-3-oxa-5,9,11,14-tetraazahexadecan-16-oate], for which the 50% inhibitory concentration (IC50) at γ-secretase was 300 nM. The “PS1 Precursor Enhancement” value at PS1 precursor [1] is on record as “−”.

In the case of `COC(=O)[C@@H](NC(=O)[C@H](C)NC(=O)Cc1cc(F)cc(F)c1)c1ccccc1` [XVI], the IC50 on γ-secretase is 10 nM. At PS1 precursor [1], the “PS1 Precursor Enhancement” value is reported as “−”.

With `C[C@H](NC(=O)Cc1cc(F)cc(F)c1)C(=O)N[C@@H]1C(=O)N(C)c2ccccc2-c2ccccc21` [XX, (S)-2-(2-(3,5-difluoro-phenyl)acetamido)-N-((S)-5-methyl-6-oxo-6,7-dihydro-5H-dibenzo[b,d]azepin-7-yl)propanamide], on γ-secretase, the concentration for half-maximal inhibition (IC50) was 1.7 nM. Besides, the “mature PS1 protein levels” value at mature PS1 was “dose dependent increase”. For the same molecule, at PS1 precursor [1], the “PS1 Precursor Enhancement” value is on record as “+++” and the “PS1 precursor (45 kDa band) level / stabilization” value is given as “significantly increased; also recorded: do stabilize the PS1 precursor”.

Regarding “(2R,3R)- 3-(3,4-difluorophenyl)- 2-(4-fluorophenyl)-4- hydroxy-N-((S)-2-oxo-5- phenyl-2,3-dihydro-1H- benzo[e][1,4]diazepin-3- yl)butanamide [XIX]”, the IC50 on γ-secretase is 0.06 nM. Further, at PS1 precursor [1], the “PS1 Precursor Enhancement” value is “+” and the “PS1 precursor (45 kDa band) level / stabilization” value is on record as “significantly increased”.

Turning to “(11S)-19-tert- butyl 1-methyl 2,14-di- sec-butyl-9,9-difluoro- 5,17-diisopropyl-11- methyl-4,8,10,15,18- pentaoxo-3,6,7,12,13,16- hexaazanon”, the 50% inhibitory concentration (IC50) at γ-secretase was 13000 nM. Further, on PS1 precursor [1], the “PS1 Precursor Enhancement” value is listed as “+” and the “PS1 precursor (45 kDa band) level / stabilization” value is “significantly increased”.
